Measured values taken from patent US12281122B1, “PI3K inhibitors” (Cogent Biosciences, Inc., priority 2023, dated 2025).

Assays:
[1] = tested on: T47D (PI3Kα-H1047R) cell line; assay: HTRF phospho-AKT(S473) cell assay in T47D cells; format: cell-based, human; conditions: Homo sapiens; T47D (PI3Kα-H1047R) cells, HTRF phospho-AKT(S473), 2 hours compound incubation
How it was run: (§1)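 Cells plated overnight (T47D in RPMI/10% FBS/0.2 units/mL insulin; SKBR3 in McCoy's 5A/10% FBS), then given 12-point 1:3 compound series (top 5 μM T47D, 10 μM SKBR3; ≤0.5% DMSO) for 2 h at 37° C. SKBR3 stimulated with 70 ng/ml PDGF-BB for final 15 min. Lysate pAKT(S473) by HTRF; IC50 calculated.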

[2] = tested on: SKBR3 (PI3Kα-Wild Type) cell line; assay: HTRF phospho-AKT(S473) cell assay in SKBR3 cells; format: cell-based, human; conditions: Homo sapiens, SK-BR-3; SKBR3 (PI3Kα-Wild Type) cells, HTRF phospho-AKT(S473), 2 hours compound incubation, PDGF-BB stimulated
How it was run: as §1

Row | Structure (SMILES) | IC50 [1] | IC50 [2]
1 | CCS(=O)(=O)NC(=O)c1nc(Cl)ccc1N[C@H](C)c1cc(C)cc2c(=O)n(C)c(N3Cc4ccc(F)cc4C3)nc12 [Compound 110, (R)-6-chloro-N-(ethylsulfonyl)-3-((1-(2-(5-fluoroisoindolin-2-yl)-3,6-dimethyl-4-oxo-3,4-dihydroquinazolin-8-yl)ethyl)amino) picolinamide] | 250 to 500 nM | 1000 to 5000 nM
2 | COC(=O)NS(=O)(=O)c1nc(Cl)ccc1N[C@H](C)c1cc(C)cc2c(=O)n(C)c(N3Cc4ccc(F)cc4C3)nc12 [Compound 131, methyl (R)-((6-chloro-3-((1-(2-(5-fluoroisoindolin-2-yl)-3,6-dimethyl-4-oxo-3,4-dihydroquinazolin-yl)ethyl)amino)pyridin-2-yl)sulfonyl) carbamate] | 500 to 1000 nM | ≥ 5000 nM
3 | Cc1cc([C@@H](C)Nc2ccc(Cl)nc2C(=O)NS(C)(=O)=O)c2nc(N3Cc4cn(-c5ccnc(C)c5)nc4C3)n(C)c(=O)c2c1 [Compound 146, (R)-6-chloro-3-((1-(3,6-dimethyl-2-(2-(2-methylpyridin-4-yl)-2,6-dihydropyrrolo[3,4-c]pyrazol-5(4H)-yl)-4-oxo-3,4-dihydroquinazolin-8-yl)ethyl)amino)-N-(methylsulfonyl) picolinamide] | < 250 nM | 1000 to 5000 nM
4 | Cc1cc([C@@H](C)Nc2ccc(Cl)nc2C(=O)NS(C)(=O)=O)c2nc(N3Cc4cn(-c5ccccc5)nc4C3)n(C)c(=O)c2c1 [Compound 147, (R)-6-chloro-3-((1-(3,6-dimethyl-4-oxo-2-(2-phenyl-2,6-dihydropyrrolo[3,4-c]pyrazol-5(4H)-yl)-3,4-dihydroquinazolin-8-yl)ethyl)amino)-N-(methylsulfonyl) picolinamide] | 250 to 500 nM | ≥ 5000 nM
5 | Cc1cc([C@@H](C)Nc2ccc(Cl)nc2C(=O)NS(C)(=O)=O)c2nc(N3Cc4n[nH]c(N)c4C3)n(C)c(=O)c2c1 [Compound 148, (R)-3-((1-(2-(3-amino-2,6-dihydropyrrolo[3,4-c]pyrazol-5(4H)-yl)-3,6-dimethyl-4-oxo-3,4-dihydroquinazolin-8-yl)ethyl)amino)-6-chloro-N-(methylsulfonyl) picolinamide] | 1000 to 5000 nM | ≥ 5000 nM
6 | Cc1cc([C@@H](C)Nc2ccc(Cl)nc2C(=O)NS(C)(=O)=O)c2nc(N3Cc4cn(CCO)nc4C3)n(C)c(=O)c2c1 [Compound 149, (R)-6-chloro-3-((1-(2-(2-(2-hydroxyethyl)-2,6-dihydropyrrolo[3,4-c]pyrazol-5(4H)-yl)-3,6-dimethyl-4-oxo-3,4-dihydroquinazolin-8-yl)ethyl)amino)-N-(methylsulfonyl) picolinamide] | 250 to 500 nM | 1000 to 5000 nM
7 | Cc1cc([C@@H](C)Nc2ccc(Cl)nc2C(=O)NS(=O)(=O)NC2CC2)c2nc(N3Cc4ccc(F)cc4C3)n(C)c(=O)c2c1 [Compound 152, (R)-6-chloro-N-(N-cyclopropylsulfamoyl)-3-((1-(2-(5-fluoroisoindolin-2-yl)-3,6-dimethyl-4-oxo-3,4-dihydroquinazolin-8-yl)ethyl)amino)picolinamide] | 250 to 500 nM | ≥ 5000 nM
8 | Cc1cc([C@@H](C)Nc2ccc(Cl)nc2C(=O)NS(C)(=O)=O)c2nc(N(C)CC3(C(F)(F)F)CC3)n(C)c(=O)c2c1 [Compound 163, (R)-6-chloro-3-((1-(3,6-dimethyl-2-(methyl((1-(trifluoromethyl)cyclopropyl)methyl)amino)-4-oxo-3,4-dihydroquinazolin-8-yl)ethyl)amino)-N-(methylsulfonyl) picolinamide] | 250 to 500 nM | 1000 to 5000 nM
9 | Cc1cc([C@@H](C)Nc2ccc(Cl)nc2C(=O)NS(C)(=O)=O)c2nc(N3CCN(c4ccc(C#N)cn4)CC3)n(C)c(=O)c2c1 [Compound 164, (R)-6-chloro-3-((1-(2-(4-(5-cyanopyridin-2-yl)piperazin-1-yl)-3,6-dimethyl-4-oxo-3,4-dihydroquinazolin-8-yl)ethyl)amino)-N-(methylsulfonyl) picolinamide] | < 250 nM | 1000 to 5000 nM
10 | Cc1cc([C@@H](C)Nc2ccc(Cl)nc2C(=O)NS(C)(=O)=O)c2nc(N3CCC(c4ccn[nH]4)CC3)n(C)c(=O)c2c1 [Compound 165, (R)-3-((1-(2-(4-(1H-pyrazol-5-yl)piperidin-1-yl)-3,6-dimethyl-4-oxo-3,4-dihydroquinazolin-8-yl)ethyl)amino)-6-chloro-N-(methylsulfonyl) picolinamide] | < 250 nM | 1000 to 5000 nM
11 | Cc1cc([C@@H](C)Nc2ccc(Cl)nc2C(=O)NS(C)(=O)=O)c2nc(N3CCn4nc(C)cc4C3)n(C)c(=O)c2c1 [Compound 166] | < 250 nM | 1000 to 5000 nM
12 | Cc1cc([C@@H](C)Nc2ccc(Cl)nc2C(=O)NS(C)(=O)=O)c2nc(N3CCC(c4cn[nH]c4)CC3)n(C)c(=O)c2c1 [Compound 167, (R)-3-((1-(2-(4-(1H-pyrazol-4-yl)piperidin-1-yl)-3,6-dimethyl-4-oxo-3,4-dihydroquinazolin-8-yl)ethyl)amino)-6-chloro-N-(methylsulfonyl) picolinamide] | < 250 nM | 1000 to 5000 nM
13 | Cc1cc([C@@H](C)Nc2ccc(Cl)nc2C(=O)NS(C)(=O)=O)c2nc(N3CCN(c4ncccn4)CC3)n(C)c(=O)c2c1 [Compound 169, (R)-6-chloro-3-((1-(3,6-dimethyl-4-oxo-2-(4-(pyrimidin-2-yl)piperazin-1-yl)-3,4-dihydroquinazolin-8-yl)ethyl)amino)-N-(methylsulfonyl) picolinamide] | < 250 nM | 1000 to 5000 nM
14 | Cc1cc([C@@H](C)Nc2ccc(Cl)nc2C(=O)NS(=O)(=O)c2ccncc2)c2nc(N3Cc4ccc(F)cc4C3)n(C)c(=O)c2c1 [Compound 170, (R)-6-chloro-3-((1-(2-(5-fluoroisoindolin-2-yl)-3,6-dimethyl-4-oxo-3,4-dihydroquinazolin-8-yl)ethyl)amino)-N-(pyridin-4-ylsulfonyl)picolinamide] | < 250 nM | ≥ 5000 nM
15 | Cc1cc([C@@H](C)Nc2ccc(Cl)nc2C(=O)NS(C)(=O)=O)c2nc(-c3cnn(-c4ccccc4)c3)n(C)c(=O)c2c1 [Compound 171, (R)-6-chloro-3-((1-(3,6-dimethyl-4-oxo-2-(1-phenyl-1H-pyrazol-4-yl)-3,4-dihydroquinazolin-8-yl)ethyl)amino)-N-(methylsulfonyl) picolinamide] | < 250 nM | 1000 to 5000 nM
16 | Cc1cc([C@@H](C)Nc2ccc(Cl)nc2C(=O)NS(C)(=O)=O)c2nc(N3Cc4cnn(C(F)F)c4C3)n(C)c(=O)c2c1 [Compound 172, (R)-6-chloro-3-((1-(2-(1-(difluoromethyl)-4,6-dihydropyrrolo[3,4-c]pyrazol-5(1H)-yl)-3,6-dimethyl-4-oxo-3,4-dihydroquinazolin-8-yl)ethyl)amino)-N-(methylsulfonyl) picolinamide] | < 250 nM | 1000 to 5000 nM
17 | Cc1cc([C@@H](C)Nc2ccc(Cl)nc2C(=O)NS(=O)(=O)C2COC2)c2nc(N3Cc4ccc(F)cc4C3)n(C)c(=O)c2c1 [Compound 173, (R)-6-chloro-3-((1-(2-(5-fluoroisoindolin-2-yl)-3,6-dimethyl-4-oxo-3,4-dihydroquinazolin-8-yl)ethyl)amino)-N-(oxetan-3-ylsulfonyl)picolinamide] | < 250 nM | 1000 to 5000 nM
